Read-outs that look alike come from different tables or passages of the source.
Assays:
[1] = test system: cyclophosphamide-induced pollakiuria model rats; test: Effects in cyclophosphamide-induced pollakiuria model rats (continuous cystometrograms); type: in vivo, rat; settings: 5 mg/kg intravenous; 20 minutes after vs 20 minutes before administration; compared to the vehicle group, p<0.05
Experimental: In the experiments, 6 to 7 female SD rats of 7 to 11 weeks old were used for one experimental group. The pollakiuria model (Lecci A et al., British Journal of Pharmacology, 2000, vol. 130, p. 331) was prepared by intraperitoneally administering cyclophosphamide (SIGMA) to rats (150 mg/kg). This model has been considered to be useful as a model of urine storage disorders associated with inflammatory disease, in particular, a model of pollakiuria of interstitial cystitis. Four to five hours after administration of cyclophosphamide, pollakiuria model rats were anesthetized by intraperitoneal administration of urethane (1 g/kg). Thereafter, a small incision was formed in the hypogastrium, and both ureters were ligated, followed by forming small incision in the ureters at the side of the kidney. Next, the bladder apex of each pollakiuria model rat was incised, and a polyethylene tube filled with physiological saline was inserted and indwelled. […]
The number of voiding episodes was counted based on CMGs. Taking the number of voiding episodes counted for a time period of 20 minutes before the administration of the test compound as 100%, the number of voiding episodes counted for a time period of 20 minutes after the administration of the test compound was expressed in %, which was used as the ratio of change in the number of voiding episodes. […]

[2] = biological target: T1, human muscarinic M1 receptor (Homo sapiens, UniProt P11229); test: Binding ability to human muscarinic receptors ([3H]N-Methylscopolamine); settings: 0.8 nmol/L [3H]N-Methylscopolamine, CHO cells
T1 construct: expressed in transfected cells; host or cells: CHO cells
T1 sequence (P11229 1-460): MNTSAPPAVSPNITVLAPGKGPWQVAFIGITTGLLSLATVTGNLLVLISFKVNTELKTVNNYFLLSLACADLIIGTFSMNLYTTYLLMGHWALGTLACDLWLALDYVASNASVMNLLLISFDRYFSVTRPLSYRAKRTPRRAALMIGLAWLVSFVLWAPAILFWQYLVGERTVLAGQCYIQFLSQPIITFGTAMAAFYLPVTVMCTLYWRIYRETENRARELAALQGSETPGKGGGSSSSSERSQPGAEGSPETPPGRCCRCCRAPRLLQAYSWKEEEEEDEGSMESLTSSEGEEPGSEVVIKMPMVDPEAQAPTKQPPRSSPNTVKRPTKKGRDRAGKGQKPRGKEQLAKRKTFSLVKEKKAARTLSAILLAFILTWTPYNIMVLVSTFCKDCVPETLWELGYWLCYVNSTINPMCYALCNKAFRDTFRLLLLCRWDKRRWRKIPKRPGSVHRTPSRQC
Experimental: (§1) CHO cells expressing human muscarinic M1, 2, 3, 4 and 5 receptors, respectively, were used (Buckley N J et al., Mol. Pharmacol., 1989, vol. 35, no. 4, p. 469-476). Receptor binding experiments were carried out according to a conventional method (Luthin G R et al., Pharmacol Exp Ther., 1984, vol. 228, no. 3, p. 648-655). As a radiolabeled ligand, 0.8 nmol/L [^3H]N-Methylscopolamine was used; and as a nonspecific ligand, 1 μmol/L Atoropine was used.

[3] = biological target: T2, human muscarinic M2 receptor (Homo sapiens, UniProt P08172); test: as above; settings: 0.8 nmol/L [3H]N-Methylscopolamine, CHO cells
T2 construct: expressed in transfected cells; host or cells: CHO cells
T2 sequence (P08172 1-466): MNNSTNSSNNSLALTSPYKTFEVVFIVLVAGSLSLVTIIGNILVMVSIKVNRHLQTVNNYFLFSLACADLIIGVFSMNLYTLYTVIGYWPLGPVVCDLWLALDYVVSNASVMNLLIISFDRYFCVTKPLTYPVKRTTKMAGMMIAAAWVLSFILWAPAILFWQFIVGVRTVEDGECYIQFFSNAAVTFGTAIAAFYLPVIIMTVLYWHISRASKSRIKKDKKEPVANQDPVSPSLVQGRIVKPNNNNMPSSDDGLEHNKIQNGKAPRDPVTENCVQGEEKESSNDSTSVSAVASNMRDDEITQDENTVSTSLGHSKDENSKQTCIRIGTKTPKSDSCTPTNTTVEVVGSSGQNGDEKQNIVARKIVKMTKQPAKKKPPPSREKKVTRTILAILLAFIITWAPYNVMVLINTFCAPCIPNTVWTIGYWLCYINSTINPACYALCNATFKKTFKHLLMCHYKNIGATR
Experimental: as §1

[4] = biological target: T3, human muscarinic M3 receptor (Homo sapiens, UniProt P20309); test: as above; settings: 0.8 nmol/L [3H]N-Methylscopolamine, CHO cells
T3 construct: expressed in transfected cells; host or cells: CHO cells
Experimental: as §1

[5] = biological target: T4, human muscarinic M4 receptor (Homo sapiens, UniProt P08173); test: as above; settings: 0.8 nmol/L [3H]N-Methylscopolamine, CHO cells
T4 construct: expressed in transfected cells; host or cells: CHO cells
T4 sequence (P08173 1-479): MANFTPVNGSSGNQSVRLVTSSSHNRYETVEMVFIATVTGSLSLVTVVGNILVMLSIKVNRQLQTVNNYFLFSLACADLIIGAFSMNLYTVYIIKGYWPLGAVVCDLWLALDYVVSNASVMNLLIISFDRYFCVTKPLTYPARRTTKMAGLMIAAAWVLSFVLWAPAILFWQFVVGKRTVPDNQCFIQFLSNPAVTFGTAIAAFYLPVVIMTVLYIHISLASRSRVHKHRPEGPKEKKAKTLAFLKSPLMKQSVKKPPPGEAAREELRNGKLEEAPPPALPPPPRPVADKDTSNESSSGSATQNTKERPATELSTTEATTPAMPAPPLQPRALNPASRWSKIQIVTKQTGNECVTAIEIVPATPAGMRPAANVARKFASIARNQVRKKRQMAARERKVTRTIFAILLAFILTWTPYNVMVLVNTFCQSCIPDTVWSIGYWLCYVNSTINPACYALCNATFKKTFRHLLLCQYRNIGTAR
Experimental: as §1

[6] = biological target: T5, human muscarinic M5 receptor (Homo sapiens, UniProt P08912); test: as above; settings: 0.8 nmol/L [3H]N-Methylscopolamine, CHO cells
T5 construct: expressed in transfected cells; host or cells: CHO cells
T5 sequence (P08912 1-532): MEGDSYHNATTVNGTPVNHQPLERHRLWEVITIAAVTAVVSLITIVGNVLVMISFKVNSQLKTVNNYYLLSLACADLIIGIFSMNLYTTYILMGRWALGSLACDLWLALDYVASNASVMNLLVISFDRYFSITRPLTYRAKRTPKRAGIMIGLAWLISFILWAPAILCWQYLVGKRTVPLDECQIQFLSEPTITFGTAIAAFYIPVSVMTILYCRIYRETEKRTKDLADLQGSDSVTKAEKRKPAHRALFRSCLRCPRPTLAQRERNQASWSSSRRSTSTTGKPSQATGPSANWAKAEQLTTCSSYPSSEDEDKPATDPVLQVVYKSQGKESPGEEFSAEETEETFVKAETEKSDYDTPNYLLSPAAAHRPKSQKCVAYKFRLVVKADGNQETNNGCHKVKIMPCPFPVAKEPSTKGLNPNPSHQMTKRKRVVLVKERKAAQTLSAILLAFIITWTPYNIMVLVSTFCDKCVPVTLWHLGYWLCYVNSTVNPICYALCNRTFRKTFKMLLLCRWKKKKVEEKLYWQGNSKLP
Experimental: as §1

[7] = test system: muscarinic receptor subtypes; test: Binding ability to human muscarinic receptors, overall statement; settings: any of M1 to M5; 10 μmol/L
Experimental: as §1

[8] = test system: mouse acetic acid writhing model; test: Mouse acetic acid writhing model (effects on pain); type: in vivo; settings: oral, 45 minutes before 0.6% acetic acid i.p., read-out: ED50 (dose by which the writhing response was inhibited by 50%)
Experimental: The mouse acetic acid writhing model, by which pain can be evaluated, was used to evaluate the analgesic effect of Compound (I).
Male ddY mice of 5 to 6 weeks old were fasted for 16 hours while allowing them to freely drink water, and a test compound solution or its vehicle was orally administered (10 mL/kg) to them. DMSO:Tween80:distilled water (1:1:8) or 27% hydroxypropyl-β-cyclodextrin (hereinafter “HP-β-CD”) was used as a vehicle of test compound solutions. Forty five minutes after the administration, 0.6% acetic acid solution (10 mL/kg) was intraperitoneally administered thereto to induce writhing response (i.e., the behavior to stretch the body and/or bend the body backward). The number of the writhing response observed for 10 minutes from 10 minutes after the administration of acetic acid solution was counted, which was taken as an indicator of pain.
Taking the mean number of writhing response of the vehicle group as 100%, the dose of a test compound by which the response was inhibited by 50% was expressed as “ED50”.

T3 sequence (P20309 whole entry): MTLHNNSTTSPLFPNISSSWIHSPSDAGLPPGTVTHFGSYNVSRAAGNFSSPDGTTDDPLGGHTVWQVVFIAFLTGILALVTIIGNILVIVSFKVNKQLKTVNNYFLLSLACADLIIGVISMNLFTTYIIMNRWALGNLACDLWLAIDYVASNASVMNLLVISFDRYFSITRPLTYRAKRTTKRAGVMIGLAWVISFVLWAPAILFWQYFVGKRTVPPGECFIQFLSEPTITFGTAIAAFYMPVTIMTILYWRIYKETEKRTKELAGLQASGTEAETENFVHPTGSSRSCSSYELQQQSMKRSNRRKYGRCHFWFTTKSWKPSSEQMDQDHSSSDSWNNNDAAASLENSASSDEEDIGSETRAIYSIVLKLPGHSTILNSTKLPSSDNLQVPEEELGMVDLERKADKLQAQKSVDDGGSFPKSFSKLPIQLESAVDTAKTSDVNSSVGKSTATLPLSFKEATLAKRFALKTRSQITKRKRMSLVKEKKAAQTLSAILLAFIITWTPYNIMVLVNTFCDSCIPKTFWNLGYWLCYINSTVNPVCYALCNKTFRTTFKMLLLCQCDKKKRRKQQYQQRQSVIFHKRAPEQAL

| SMILES | ED50 ([8]; Vehicle B (HP-β-CD)) [mg/kg] | also measured |
| --- | --- | --- |
| COc1ccc(-n2nc(C3(O)CCC(O)CC3)cc2-c2ccc(C)cc2)cc1 (stereo not drawn) [Compound 3, 1-(1-(4-methoxyphenyl)-5-(p-tolyl)-1H-pyrazol-3-yl)cyclohexan-cis-1,4-diol] | – | increase in the number of voiding episodes (ratio of change in the number of voiding episodes) [1]: significantly improved; Inhibition Ratio by 10 μmol/L Compound 3 (%) [2]: −10%; Inhibition Ratio by 10 μmol/L Compound 3 (%) [3]: −6%; Inhibition Ratio by 10 μmol/L Compound 3 (%) [4]: −4%; Inhibition Ratio by 10 μmol/L Compound 3 (%) [5]: −1%; Inhibition Ratio by 10 μmol/L Compound 3 (%) [6]: −4%; binding to muscarinic receptor subtypes [7]: did not bind |
| COc1ccc(-n2nc(C3(O)CCC(=O)CC3)cc2-c2ccc(C)cc2)cc1 [Compound 4, 4-hydroxy-4-(1-(4-methoxyphenyl)-5-(p-tolyl)-1H-pyrazol-3-yl)cyclohexan-1-one] | – | ED50 ([8]; Vehicle A (DMSO:Tween80:distilled water=1:1:8)): 1.95 mg/kg |
| COc1ccc(-n2nc(C3(O)CCC(OC(C)=O)CC3)cc2-c2ccc(C)cc2)cc1 (stereo not shown) [Compound 12, c-4-hydroxy-4-(1-(4-methoxyphenyl)-5-(p-tolyl)-1H-pyrazol-3-yl)-cyclohexan-r-1-yl acetate] | 1.77 | – |
| COc1ccc(-n2nc(C3(O)CCC(O)CC3)cc2-c2ccc(C)nc2)cc1 (stereo not drawn) [Compound 15, 1-(1-(4-methoxyphenyl)-5-(6-methylpyridin-3-yl)-1H-pyrazol-3-yl)cyclohexan-cis-1,4-diol] | 6.07 | – |
| COc1ccc(-c2nc(C3(O)CCC(O)(C(F)(F)F)CC3)sc2-c2ccc(C)cc2)cc1 (stereo not drawn) [Compound 46, 1-(4-(4-methoxyphenyl)-5-(p-tolyl)thiazol-2-yl)-4-(trifluoromethyl)cyclohexan-cis-1,4-diol] | 9.65 | – |
| Cc1ccc(-c2cc(C3(O)CCC(O)CC3)nn2-c2ccc(C#N)cc2)cc1 (stereo not shown) [Compound 49] | 2.69 | – |
| COc1ccc(-n2nc(C3(O)CCC(O)CC3)cc2-c2ccc(C#N)cc2)cc1 (stereo not shown) [Compound 51] | 4.69 | – |
| COc1ccc(-n2nc(C3(O)CCC(O)CC3)cc2-c2ccc(C)cc2)cc1F (stereo not shown) [Compound 54] | 3.73 | – |
| COc1ccc(-n2nc(C3(O)CCC(OC(=O)OC4CCCCC4)CC3)cc2-c2ccc(C)cc2)cc1 (stereo not drawn) [Compound 60, cyclohexyl 4-hydroxy-4-(1-(4-methoxyphenyl)-5-(p-tolyl)-1H-pyrazol-3-yl)-cis-cyclohexyl carbonate] | 6.18 | – |
| CCOC(=O)OC1CCC(O)(c2cc(-c3ccc(C)cc3)n(-c3ccc(OC)cc3)n2)CC1 (stereo not shown) [Compound 61] | 4.79 | – |
